Source: PubChem BioAssay (NCI)
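Where inhibition never reached the appropriate level, the endpoint shown equals the highest concentration tested. Otherwise, values were interpolated linearly from a five-concentration, 48-hour dose response in 96-well plates. The concentration for 50% growth inhibition is given as GI50. At the TGI there is no net growth.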

Columns and labels:
Assay in all cases: NCI anticancer screen, dose series, 48 h
[1] = tested on: BT-549 breast
[2] = tested on: COLO 205 colon
[3] = tested on: SN12C renal
[4] = tested on: PC-3 prostate
[5] = tested on: DU-145 prostate
[6] = tested on: U251 CNS
[7] = tested on: T-47D breast
[8] = tested on: SK-MEL-5 melanoma
[9] = tested on: K-562 leukemia
[10] = tested on: NCI-H23 lung
[11] = tested on: ACHN renal
[12] = tested on: HCT-116 colon
[13] = tested on: UACC-62 melanoma
[14] = tested on: SR leukemia
[15] = tested on: SNB-19 CNS
[16] = tested on: HCC-2998 colon
[17] = tested on: HL-60(TB) leukemia
[18] = tested on: SF-295 CNS
[19] = tested on: RXF 393 renal
[20] = tested on: M14 melanoma
[21] = tested on: UO-31 renal
[22] = tested on: SW-620 colon
[23] = tested on: OVCAR-3 ovarian
[24] = tested on: OVCAR-4 ovarian
[25] = tested on: HCT-15 colon
[26] = tested on: HOP-92 NSCLC
[27] = tested on: RPMI-8226 leukemia
[28] = tested on: OVCAR-5 ovarian
[29] = tested on: IGROV1 ovarian
[30] = tested on: A498 renal
[31] = tested on: CAKI-1 renal
[32] = tested on: NCI/ADR-RES ovarian
[33] = tested on: A549 NSCLC
[34] = tested on: OVCAR-8 ovarian
[35] = tested on: 786-0 renal
[36] = tested on: MALME-3M melanoma
[37] = tested on: EKVX NSCLC
[38] = tested on: SK-MEL-28 melanoma
[39] = tested on: MCF7 breast
[40] = tested on: NCI-H522 lung
[41] = tested on: SNB-75 CNS
[42] = tested on: HT29 colon
[43] = tested on: KM12 colon
[44] = tested on: MDA-MB-435
[45] = tested on: UACC-257 melanoma
[46] = tested on: SK-MEL-2 melanoma
[47] = tested on: SF-539 CNS
[48] = tested on: MDA-MB-468 breast
[49] = tested on: SK-OV-3 ovarian
[50] = tested on: NCI-H226 lung
[51] = tested on: HS 578T breast
[52] = tested on: MOLT-4 leukemia
[53] = tested on: SF-268 CNS
[54] = tested on: HOP-62 NSCLC
[55] = tested on: CCRF-CEM leukemia
[56] = tested on: MDA-MB-231 breast
[57] = tested on: LOX IMVI melanoma
[58] = tested on: NCI-H460 lung
[59] = tested on: TK-10 renal

Question: Which results are given for `CN1CCc2c(sc3ncnc(N/N=C/c4cccc(Cl)c4Cl)c23)C1`?
Answer: GI50 [1]: 4.13 µM; TGI [1]: > 24 µM; GI50 [2]: 4.34 µM; TGI [2]: 9.78 µM; GI50 [3]: 5.58 µM; TGI [3]: 16.8 µM; GI50 [4]: > 24 µM; TGI [4]: > 24 µM; GI50 [5]: 8.34 µM; TGI [5]: > 24 µM; GI50 [6]: 4.83 µM; TGI [6]: 10.8 µM; GI50 [7]: 5.55 µM; TGI [7]: 18.3 µM; GI50 [8]: 12.9 µM; TGI [8]: > 24 µM; GI50 [9]: 4.42 µM; TGI [9]: 15.1 µM; GI50 [10]: 5.24 µM; TGI [10]: 15.4 µM; GI50 [11]: 3.68 µM; TGI [11]: 7.89 µM; GI50 [12]: 4.49 µM; TGI [12]: 11.2 µM; GI50 [13]: > 24 µM; TGI [13]: > 24 µM; GI50 [14]: 3.54 µM; TGI [14]: > 24 µM; GI50 [15]: 5.61 µM; TGI [15]: 18.2 µM; GI50 [16]: 4.47 µM; TGI [16]: 10.7 µM; GI50 [17]: 4.01 µM; TGI [17]: 10 µM; GI50 [18]: 3.82 µM; TGI [18]: 8.23 µM; GI50 [19]: 3.19 µM; TGI [19]: 12.3 µM; GI50 [20]: 12.8 µM; TGI [20]: > 24 µM; GI50 [21]: 6.39 µM; TGI [21]: > 24 µM; GI50 [22]: 7.79 µM; TGI [22]: > 24 µM; GI50 [23]: 4.77 µM; TGI [23]: 13.8 µM; GI50 [24]: 6.54 µM; TGI [24]: > 24 µM; GI50 [25]: 4.76 µM; TGI [25]: 17.1 µM; GI50 [26]: 4.92 µM; TGI [26]: > 24 µM; GI50 [27]: 6.69 µM; TGI [27]: > 24 µM; GI50 [28]: 8.14 µM; TGI [28]: > 24 µM; GI50 [29]: 5.68 µM; TGI [29]: 15.4 µM; GI50 [30]: > 24 µM; TGI [30]: > 24 µM; GI50 [31]: 4.49 µM; TGI [31]: 11.4 µM; GI50 [32]: 4.76 µM; TGI [32]: 15.3 µM; GI50 [33]: 7.79 µM; TGI [33]: > 24 µM; GI50 [34]: 5.81 µM; TGI [34]: 17.8 µM; GI50 [35]: 4.79 µM; TGI [35]: 10 µM; GI50 [36]: 7.15 µM; TGI [36]: > 24 µM; GI50 [37]: 5.09 µM; TGI [37]: 17.6 µM; GI50 [38]: 13.7 µM; TGI [38]: > 24 µM; GI50 [39]: 4.89 µM; TGI [39]: 17.6 µM; GI50 [40]: 9.89 µM; TGI [40]: > 24 µM; GI50 [41]: 5.12 µM; TGI [41]: 21.4 µM; GI50 [42]: 4.16 µM; TGI [42]: 9.55 µM; GI50 [43]: > 24 µM; TGI [43]: > 24 µM; GI50 [44]: 13.6 µM; TGI [44]: > 24 µM; GI50 [45]: > 24 µM; TGI [45]: > 24 µM; GI50 [46]: > 24 µM; TGI [46]: > 24 µM; GI50 [47]: 3.83 µM; TGI [47]: 7.3 µM; GI50 [48]: 3.19 µM; TGI [48]: 10.6 µM; GI50 [49]: > 24 µM; TGI [49]: > 24 µM; GI50 [50]: 11.6 µM; TGI [50]: > 24 µM; GI50 [51]: 6.56 µM; TGI [51]: 22.9 µM; GI50 [52]: 7.65 µM; TGI [52]: > 24 µM; GI50 [53]: 10.7 µM; TGI [53]: > 24 µM; GI50 [54]: 4.45 µM; TGI [54]: 10.7 µM; GI50 [55]: 4.41 µM; TGI [55]: > 24 µM; GI50 [56]: 3.88 µM; TGI [56]: 8.01 µM; GI50 [57]: 3.52 µM; TGI [57]: 6.83 µM; GI50 [58]: 7.54 µM; TGI [58]: > 24 µM; GI50 [59]: 5.5 µM; TGI [59]: 18.2 µM
